Experiment [1] has as its system T-type Ca channels (guinea pig atrial cells). The experiment in a line: whole-cell patch clamp, tail current analysis, modulated receptor theory. Format: cell-based, Cavia porcellus. To be noted: read-out: KI, inactivated state (apparent). Background: The patch-clamp technique gives a direct electrical read-out from membranes.
In experiment [2] the test system is T-type Ca channels in GH3 cells. Described as above. Format: cell-based, Rattus norvegicus. To be noted: read-out: KI; inactivated state (apparent); six experiments.

Molecules are shown by their SMILES. Where two headings read alike, the source gives them in different places.

Turning to `CC1=C(C(=O)OC(C)C)[C@@H](c2cccc3nonc23)C([N+](=O)[O-])=C(C)N1` [(-)-(R)-202-791], the Kd in experiment [1] (30-s prepulse) was found to be 15.3 nM.
Consider `CC(C)COCC(CN(Cc1ccccc1)c1ccccc1)N1CCCC1` (stereo not shown) [bepridil], for which the Kd in experiment [1] (from block by 0.5 µM drug) was 1240 nM.
`CCOC(=O)C1=C(C)NC(C)=C(C(=O)OC)C1c1cccc(Cl)c1Cl` (stereo not shown) [felodipine]: the Kd in experiment [2] was 680 ± 220 nM.
As to `COC(=O)C1=C(C)NC(C)=C(C(=O)OC(C)C)C1c1cccc2nonc12` (stereo not shown) [isradipine], the Kd in experiment [1] (30-s prepulse) turned out to be 20.4 nM.

The values above are taken from PMC2229105 (The Journal of General Physiology, 1992).
